Assay results reported in patent publication US5665367A, “Skin care compositions containing naringenin and/or quercetin and a retinoid” (Chesebrough-Pond's USA Co., Division of Conopco, Inc., priority 1996, dated 1997).
Like-named read-outs stand apart in the source and are kept apart here.

Columns and labels:
[1] = tested on: transglutaminase I (TG1) in human keratinocytes; experiment: Transglutaminase assay (ELISA based TGase I assay) normalized to DNA in keratinocytes, Examples 2-4; assay type: cell-based; details: for inhibition of keratinocyte differentiation compared with retinoic acid: summary of the studies
Protocol: (§1) Human keratinocytes, isolated from neonatal foreskin by trypsin treatment were grown in Dulbecco Modification Eagle (DME) Hams F12 (1:1) medium/10% fetal calf serum in the presence of irradiated 3T3 mouse fibroblasts for establishing dividing keratinocyte colonies. Cells were grown under the above condition until their second passage and kept frozen for future use. Frozen second passage keratinocytes were thawed and plated into the above medium and grown for five days before they were switched to a serum-free MCDB 153-based medium keratinocyte growth medium (KGM) from Clonetics Corporation, San Diego, Calif., containing 0.15 mM Ca, or keratinocyte serum-free media (KSFM) from GIBCO containing 0.09 mM Ca). On day 7, when the cells were 80-90% confluent, they were trypsinized and plated in the serum-free medium for the various experiments.
(§2) During the process of terminal differentiation in the epidermis, a 15 nm thick layer of protein, known as the cornified envelope (CE) is formed on the inner surface of the cell periphery. The CE is composed of numerous distinct proteins which have been cross-linked together by the formation of N^ε -(γ-glutamyl) lysine isodipeptide bonds catalyzed by the action of at least two different transglutaminases (TGases) expressed in the epidermis. TGase 1 is expressed in abundance in the differentiated layers of the epidermis, especially the granular layer, but is absent in the undifferentiated basal epidermis. Thus TGase I is a useful marker of epidermal keratinocyte differentiation with high TGase I levels indicating a more differentiated state. An ELISA based TGase I assay, using a TGase I antibody, was used to assess the state of differentiation of the cultured keratinocytes in the examples that follow.
For Examples 2-4, the following procedure was used:
Keratinocytes (cultured as described above) were plated in 96 well plates at a density of 3,000 cells per well in 200 μl of cell culture media. After incubation for four days, the media was changed to media containing test compounds (six replicates per test). The cells were cultured for a further 72 hours after which time the media was aspirated and the plates stored at -70° C. After the plates were removed from the freezer, the cells were further freezed fractured by freezing and thawing and then washed 3x with PBS. The cells were incubated for one hour at room temperature (R/T) with TBS/5% BSA buffer. Cells were then incubated with 100 μl of monoclonal anti-human transglutaminase (IgG) mouse antibody (primary antibody) obtained from Biomedical Technologies Inc. diluted 1:2000 in TBS/1% BSA buffer for two hours at 37° C., and then rinsed six times with wash buffer (TBS/1% BSA/0.05% Tween-20). Cells were next incubated with 100 μl of Fab fragment, peroxidase conjugated anti-mouse IgG antibody (secondary antibody) from Amersham diluted 1:4,000 in wash buffer for two hours at 37° C. and then rinsed three times with wash buffer and three times with PBS. Cells were incubated with substrate solution (4mg o-phenylene diamine and 3.3 μl 30% H2 O2 in 10mL 0.1M citrate buffer, pH 5.0) for five minutes at R/T and in darkness (under aluminum foil). The reaction was stopped by the addition of 50 μl N H2 SO4. The absorbance of samples was read at 492 nm in the plate reader. Out of the six replicates, four were treated with both antibodies, two were treated only with the secondary antibody (i.e., to determine the background binding of the enzyme conjugated antibody). Transglutaminase I levels were determined by subtracted background from the readings from each treatment and determining the mean s.d. for the replicates exposed to both antibodies.
(§3) The level of TGase-1 detected after treatment of the cells could be influenced by cell number, i.e., the greater the number of cells the greater the level of TGase-1 detected. The level of TGase-1 was normalized to DNA content of the cells in the same well thus eliminating variation due to differences in cell number. […]

[2] = tested on: transglutaminase (TGase I) in human keratinocytes; experiment: Transglutaminase assay (ELISA based TGase I assay) normalized to DNA in keratinocytes, Example 1; assay type: cell-based; details: for mean TGase/DNA × 10^-4 ± s.d / activity at 0.25 µM / activity at 0.025 µM / activity at 0.0025 µM: 72 hours, Table 1, n = 3; for decrease in transglutaminase level, dose dependence: 2.5×10^-9 to 2.5×10^-7 M; for activity at 0.25 µM / activity at 0.025 µM / activity at 0.0025 µM: Homo sapiens, Keratinocyte, read-out: mean TGase/DNA (% control)
Protocol: as §1, §2
For Example 1, the following procedure was used:
Keratinocytes (cultured as described above) were plated in 96 well plates at a density of 3,000 cells per well in 200 μl media. After incubation for four days the media was changed to media containing test compounds (six replicates per test). The cells were cultured for a further 72 hours after which time the media was aspirated and the plates stored at -70° C. Plates were removed from the freezer, and the cells washed with PBS. 100 μl sterile water was added and the cells were freeze fractured by freezing at -70° C. then thawing. The cells were incubated for one hour at room temperature (R/T) with PBS/3% BSA (wash buffer, bovine serum albumin), then rinsed with a fresh aliquot of wash buffer. Cells were incubated with 50 μl of primary antibodies monoclonal anti-human transglutaminase mouse antibody (IgG) obtained from Biomedical Industries diluted 1:2,000 in wash buffer for one hour, 37° C. then rinsed two times with wash buffer. Cells were then incubated with 50 μl of secondary antibody (Fab fragment, peroxidase conjugated anti-mouse IgG obtaining from Amersham) diluted 1:4,000 in wash buffer for one hour at 37° C., then rinsed two times with wash buffer. Cells were incubated with substrate solution (4 mg o-phenylene diamine and 3.3 μl 30% H2 O2 in 10 ml 0.1M citrate buffer pH 5.0) for five minutes, R/T, in darkness (under aluminum foil). The reaction was stopped by the addition of 50 μl N H2 SO4. The absorbance of samples was read at 492 nm in the plate reader. Out of the six replicates, four were treated with both antibodies, two were treated only with the secondary antibody (i.e., to determine background binding of enzyme conjugated Ab). TGase levels were determined by subtracting background from the readings from each treatment and determining mean ±s.d. for the replicates exposed to both Ab.
as §3

[3] = Example 2: 2.5×10^-7 M retinoic acid, 2.5×10^-9 M retinol, 10^-7 M naringenin alone
[4] = Example 3: 2.5×10^-7 M retinoic acid, 2.5×10^-8 M retinyl palmitate, 10^-8 M naringenin alone
[5] = Example 4: 2.5×10^-7 M retinoic acid, 2.5×10^-7 M retinol, 10^-6 M quercetin alone
[6] = 2.5 × 10^-7 M, 72 hour treatment, Table 4 (Example 4), n = 3
[7] = Homo sapiens, Keratinocyte, 72 h, 2.5 × 10^-7 M, 72 hour treatment, Table 4 (Example 4), n = 3, read-out: mean TGase/DNA (% control)

| Compound | repression of keratinocyte TG1 level (in words) [1, 4] | repression of keratinocyte TG1 level (in words) [1, 3] | repression of keratinocyte TG1 level (in words) [1, 5] | decrease in transglutaminase level, dose dependence [2] | activity at 0.25 µM ([2]; 2.5 × 10^-7 M) [%] | activity at 0.025 µM ([2]; 2.5 × 10^-8 M) [%] | activity at 0.0025 µM ([2]; 2.5 × 10^-9 M) [%] | mean TGase/DNA × 10^-5 ± s.d [1, 6] | activity at 0.25 µM [1, 7] [%] | inhibition of keratinocyte differentiation compared with retinoic acid [1] | other results |
| --- | --- | --- | --- | --- | --- | --- | --- | --- | --- | --- | --- |
| O=C1C[C@@H](c2ccc(O)cc2)Oc2cc(O)cc(O)c21 [Naringenin, naringenin] | small inhibitory effect | no inhibitory effect |  |  |  |  |  |  |  |  | mean TGase/DNA × 10^-5 ± s.d ([1]; 10^-7 M naringenin, 72 hour treatment, Table 2 (Example 2), n = 3): 49.84 ± 2.76 × 10^-5; mean TGase/DNA × 10^-5 ± s.d ([1]; 10^-8 M naringenin, 72 hour treatment, Table 3 (Example 3), n = 3): 45.01 ± 1.90 × 10^-5; activity at 0.1 µM ([1]; Homo sapiens, Keratinocyte, 72 h, 10^-7 M naringenin, 72 hour treatment, Table 2 (Example 2), n = 3, read-out: mean TGase/DNA (% control)): 94%; activity at 0.01 µM ([1]; Homo sapiens, Keratinocyte, 72 h, 10^-8 M naringenin, 72 hour treatment, Table 3 (Example 3), n = 3, read-out: mean TGase/DNA (% control)): 89% |
| O=c1c(O)c(-c2ccc(O)c(O)c2)oc2cc(O)cc(O)c12 [Quercetin, quercetin] |  |  | only a small inhibitory effect |  |  |  |  |  |  |  | mean TGase/DNA × 10^-5 ± s.d ([1]; 10^-6 M quercetin, 72 hour treatment, Table 4 (Example 4), n = 3): 59.04 ± 3.38 × 10^-5; activity at 1 µM ([1]; Homo sapiens, Keratinocyte, 72 h, 10^-6 M quercetin, 72 hour treatment, Table 4 (Example 4), n = 3, read-out: mean TGase/DNA (% control)): 85% |
| CC1=C(/C=C/C(C)=C/C=C/C(C)=C/C(=O)O)C(C)(C)CCC1 [Retinoic acid, retinoic acid] | very effective | very effective | effective | in a dose dependant manner decreased transglutaminase I levels | 7 | 55 | 77 | 35.91 ± 3.01 × 10^-5 | 52 |  | mean TGase/DNA × 10^-4 ± s.d ([2]; 2.5 × 10^-7 M): 0.16 ± 0.11 × 10^-4; mean TGase/DNA × 10^-4 ± s.d ([2]; 2.5 × 10^-8 M): 1.34 ± 0.40 × 10^-4; mean TGase/DNA × 10^-4 ± s.d ([2]; 2.5 × 10^-9 M): 1.87 ± 0.49 × 10^-4; decrease in transglutaminase level, dose dependence ([2]; listed as retinoic acid): dose dependent; effect on keratinocyte differentiation ([2]; all concentrations tested, versus ethanol control, Example 1): decreased keratinocyte differentiation; extent of decrease versus corresponding retinol treatments ([2]; all concentrations tested, Example 1): significantly greater extent; mean TGase/DNA × 10^-5 ± s.d ([1]; 2.5 × 10^-7 M RA, 72 hour treatment, Table 2 (Example 2), n = 3): 22.47 ± 2.31 × 10^-5; mean TGase/DNA × 10^-5 ± s.d ([1]; 2.5 × 10^-7 M RA, 72 hour treatment, Table 3 (Example 3), n = 3): 16.31 ± 2.58 × 10^-5; activity at 0.25 µM ([1]; Homo sapiens, Keratinocyte, 72 h, 2.5 × 10^-7 M RA, 72 hour treatment, Table 2 (Example 2), n = 3, read-out: mean TGase/DNA (% control)): 42%; activity at 0.25 µM ([1]; Homo sapiens, Keratinocyte, 72 h, 2.5 × 10^-7 M RA, 72 hour treatment, Table 3 (Example 3), n = 3, read-out: mean TGase/DNA (% control)): 32% |
| CC1=C(/C=C/C(C)=C/C=C/C(C)=C/CO)C(C)(C)CCC1 [Retinol, retinol] |  | ineffective | ineffective | dose dependent | 47 | 77 | > 100 | 61.93 ± 5.18 × 10^-5 | 90 | significantly less effective than retinoic acid | mean TGase/DNA × 10^-5 ± s.d ([1]; 2.5 × 10^-9 M retinol, 72 hour treatment, Table 2 (Example 2), n = 3): 48.31 ± 5.31 × 10^-5; mean TGase/DNA (% control) ([1]; 2.5 × 10^-9 M retinol, 72 hour treatment, Table 2 (Example 2), n = 3, 0.0025 µM, 4320 min): 91%; activity at 0.0025 µM ([1]; Homo sapiens, Keratinocyte, 72 h, 2.5 × 10^-9 M retinol, 72 hour treatment, Table 2 (Example 2), n = 3, read-out: mean TGase/DNA (% control)): 92% |
| CCCCCCCCCCCCCCCC(=O)OC/C=C(C)/C=C/C=C(C)/C=C/C1=C(C)CCCC1(C)C [Retinyl palmitate, retinyl palmitate] | ineffective |  |  |  |  |  |  |  |  | significantly less effective than retinoic acid | mean TGase/DNA × 10^-5 ± s.d ([1]; 2.5 × 10^-8 M retinyl palmitate, 72 hour treatment, Table 3 (Example 3), n = 3): 47.32 ± 4.22 × 10^-5; activity at 0.025 µM ([1]; Homo sapiens, Keratinocyte, 72 h, 2.5 × 10^-8 M retinyl palmitate, 72 hour treatment, Table 3 (Example 3), n = 3, read-out: mean TGase/DNA (% control)): 93% |
